According to US6333176A (Degussa Aktiengesellschaft, priority 1994, dated 2001):
Where two headings read alike, the source gives them in different places. Peptide text beside a SMILES is read from it. * marks the point of attachment. Cbz = O=C(OCc1ccccc1)*

Columns and labels:
[1] = target: T1, peptide amidase from Xanthomonas maltophilia (Stenotrophomonas maltophilia, UniProt Q8RJN5); test: biochemical; assay type: biochemical; conditions: for remaining activity at 10000 µM: read-out: residual activity
T1 construct: wild type, not recombinant
T1 sequence (Q8RJN5 34-540): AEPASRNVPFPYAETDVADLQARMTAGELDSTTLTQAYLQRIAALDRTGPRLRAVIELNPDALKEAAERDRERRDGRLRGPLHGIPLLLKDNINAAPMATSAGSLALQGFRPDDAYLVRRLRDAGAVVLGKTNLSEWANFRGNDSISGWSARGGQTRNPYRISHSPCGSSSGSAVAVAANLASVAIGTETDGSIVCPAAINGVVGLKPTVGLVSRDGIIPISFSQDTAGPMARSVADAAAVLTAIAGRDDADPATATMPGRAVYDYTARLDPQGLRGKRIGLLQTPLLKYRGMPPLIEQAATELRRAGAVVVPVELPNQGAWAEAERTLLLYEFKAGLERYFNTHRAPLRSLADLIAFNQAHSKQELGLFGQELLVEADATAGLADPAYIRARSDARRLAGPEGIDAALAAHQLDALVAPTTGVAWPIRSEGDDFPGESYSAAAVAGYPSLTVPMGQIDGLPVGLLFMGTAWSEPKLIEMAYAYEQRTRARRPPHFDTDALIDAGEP

[2] = target: T1, peptide amidase from Xanthomonas maltophilia; test: Splitting of racemic mixtures of N-protected amino acid amides; assay type: biochemical; conditions: racemic substrate 10 mM, 20 U peptide amidase in 50 ml, 50 mM triethylammonium carbonate pH 7.5, 30° C.
Procedure: The tests for the splitting [separation] of racemic mixtures took place in 50 mM triethylammonium carbonate buffer, pH 7.5. The test batches a 50 ml with 20 U peptide amidase each were incubated at 30° C. Z-D,L-Ala-NH2, Ac-D,L-Met-NH2 and Ac-D,L-neopentylglycine amide (Ac-D,L-Npg-NH2) were available as substrates. The concentration of the substrates in the reaction batch was 10 mM. Specimens were taken at different times, the reaction stopped by heating for 5 minutes at 95° C. and the enantiomeric purity examined with HPLC.

[3] = target: T1, peptide amidase from Xanthomonas maltophilia; test: Substrate spectrum of peptide amidase, enzymatic determination of the released ammonia; assay type: biochemical; conditions: substrate 10 mM, 18 mU peptide amidase per ml, 50 mM tris/HCl pH 7.5, 30° C., 3 hours
Procedure: 18 mU of peptide amidase (purification state after the gel filtration) per ml test batch was used for the substrate spectrum of peptide amidase from Xanthomonas maltophilia. The concentration of the tested substrates was 10 mM in the reaction batch. Unless otherwise indicated, L-amino acid derivatives were used. The incubation took place in 50 mM tris/HCl, pH 7.5 at 30° C. for 3 hours. The reaction was stopped by heating for 5 minutes at 95° C. The determination of activity took place using enzymatic determination of the released ammonia (Bergmeyer, U. (1985): Methods of Enzymatic Analysis, p. 459, VCH Verlagsgesellschaft, Weinheim).

Xanthomonas maltophilia = test: Inducibility of peptide amidase from Xanthomonas maltophilia; assay type: cell-based; conditions: for Activity (peptide amidase in raw extract) / Spec. activity (peptide amidase in raw extract): additive in the nutrient medium (amide 0.5%), 2 days, 30° C., 120 rpm
Procedure: 1 l Erlenmeyer flasks were provided with 200 ml of the nutrient medium used in the second part of the screening for the examinations of the inducibility of peptide amidase from Xanthomonas maltophilia. The amount of yeast extract was raised to 0.1% thereby and only one amide derivative added to 0.5% of the medium in each instance. In addition, media without the addition of amides and with 1.5% yeast extract were examined. Ac-DL-Met-NH2, leucine amide and carnitine amide were used as amides. The flasks were inoculated to 0.5% and agitated 2 days at 30° C. and 120 rpm. The obtention of the raw extracts took place as already described above.

[4] = target: T1, peptide amidase from Xanthomonas maltophilia; test: Influence of solvents on the peptide amidase activity; assay type: biochemical; conditions: pH 7.5, 90 minutes, 30° C.
Procedure: 200 μl enzyme solution (59 μg BSAeq/ml, purification stage after the gel filtration) were compounded in each instance with 700 μl of an appropriate mixture of 50 mM tris/solvent, pH 7.5 for the examinations of the influence of solvents on the peptide amidase activity. Dimethylformamide (DMF), acetone, ethanol and propan-1-ol, which were present in the reaction batch up to 70% by volumetric amount, were tested as solvents. The reaction was started by adding substrate Z-Gly-Tyr-NH2. The incubation took place for 90 minutes at 30° C. Then, aliquots of 100 μl of the reaction batches were provided with 100 μl glacial acetic acid and the enzyme activity determined as described in 1.4. […] It is apparent that at 20% DMF, 94% residual activity is still present and even at 30%, 59% is still present. In the presence of other solvents such as […] the enzyme distinctly loses activity but is nevertheless not completely inactivated at a content of 10% (residual activity 30%).

[5] = tested on: peptide amidase from flavedo of oranges; conditions: cited from earlier work
[6] = target: T1, peptide amidase from Xanthomonas maltophilia; test: Enzyme kinetics of peptide amidase; assay type: biochemical; conditions: substrate 0.4 to 20 mM, 50 mM tris/HCl pH 7.5, 2 hours, 30° C.
Procedure: (§1) The dependency of the reaction rate of peptide amidase from Xanthomonas maltophilia on the substrate concentration (Z-Gly-Tyr-NH2) was determined and the kinetic parameters determined from the data according to Marquardt. To this end, 50 μl enzyme solution a 27 μg BSAeq/ml were compounded with 400 μl 50 mM tris/HCl buffer, pH 7.5. The reaction was started by adding Z-Gly-Tyr-NH2 as substrate. The substrate was present in the reaction batches in a concentration range of 0.4 to 20 mM. The incubation took place for 2 hours at 30° C. The enzyme activity was then determined as described under 1.4.
(§2) The reaction conditions were selected with a view to the pH stability of peptide amidase from Xanthomonas maltophilia.
(§3) In order to stop the reaction 100 μl of the reaction solution was removed, compounded with 100 μl glacial acetic acid and filled with 1.4 ml HPLC mobile solvent. An aliquot of 20 μl was analyzed by HPLC. The conditions for the HPLC analysis of Z-Gly-Tyr-NH2 were as follows: […]

[7] = substrate: NC(=O)[C@H](Cc1ccc(O)cc1)NC(=O)CNC(=O)OCc1ccccc1; test: Enzyme kinetics of peptide amidase; assay type: biochemical, Xanthomonas maltophilia; conditions: other: substrate 0.4 to 20 mM, 50 mM tris/HCl pH 7.5, 2 hours, 30° C.
Procedure: as §1, §2, §3

[8] = potential inhibitor 10 mM in the test, preincubation 1 h 30° C., Z-Gly-Tyr-NH2 10 mM, 2.5 h

Molecule: O=C(O)CN(CCN(CC(=O)O)CC(=O)O)CC(=O)O [EDTA]
- remaining activity at 10000 µM [1]: 96%

Molecule: CSCC[C@H](NC(C)=O)C(=O)O [Ac-L-Met-OH]
- enantiomeric purity examined with HPLC (share of the enantiomer in the acid product) [2]: 99.7-99.8%

Molecule: c1cnc2c(c1)ccc1cccnc12 [1,10-phenanthroline]
- remaining activity at 10000 µM [1, 8]: 92%

Molecule: CCCCC[C@H](CC(=O)NO)C(=O)N[C@H](C(=O)N1CCC[C@H]1CO)C(C)C [Actinonine]
- remaining activity at 10000 µM [1, 8]: 106%

Molecule: O.O.O.O.O.O.[Cl][Hg][Cl] [HgCl2 *6 H2 O]
- residual activity [1, 8]: 67%

Molecule: c1ccc(-c2ccccn2)nc1 [2,2'-dipyridyl]
- remaining activity at 10000 µM [1, 8]: 97%

Molecule: NNC(N)=O [Semicarbazide]
- remaining activity at 10000 µM [1, 8]: 99%

Molecule: CSCCC(NC(C)=O)C(N)=O (racemic) [Ac-D,L-Met-NH2, N-Ac-D,L-methionine amide]
- Relative conversion (conversion of N-acetyl amino acid amides, Table 4b) [3]: 102%
- Relative conversion (influence of protective group and adjacent amino acid, Table 4c) [3]: 102%
- Activity (peptide amidase in raw extract) (Xanthomonas maltophilia): 88 mU/ml
- Spec. activity (peptide amidase in raw extract) (Xanthomonas maltophilia): 13 mU/mg BSAeq
- change of the specific activity by addition of the inductor (Xanthomonas maltophilia; compared with medium without additive): doubled to tripled

Molecule: C[C@H](NC(=O)OCc1ccccc1)C(=O)O [Z-L-Ala-OH]
- enantiomeric purity examined with HPLC (share of the enantiomer in the acid product) [2]: 99.6%

Molecule: O.O.O.O.O.O.[Cl-].[Cl-].[Co+2] [CoCl2 *6 H2 O]
- residual activity [1, 8]: 80%

Molecule: CC(C)O [propan-2-ol]
- residual activity of peptidase amidase in presence of solvent ([4]; 10% solvent): 30%

Molecule: O.O.O.O.O.O.[Cl][Ni][Cl] [NiCl2 *6 H2 O]
- residual activity [1, 8]: 93%

Molecule: CN(C)C=O [DMF, Dimethylformamide]
- residual activity of peptidase amidase in presence of solvent ([4]; 20% solvent): 94%
- residual activity of peptidase amidase in presence of solvent ([4]; 30% solvent): 59%

Molecule: CC(=O)N[C@H](CC(C)(C)C)C(=O)O [Ac-D-Npg-OH]
- enantiomeric purity examined with HPLC (share of the enantiomer in the acid product) [2]: 0.2%

Molecule: C[C@@H](NC(=O)OCc1ccccc1)C(=O)O [Z-D-Ala-OH]
- enantiomeric purity examined with HPLC (share of the enantiomer in the acid product) [2]: 0.4%

Molecule: O.O.O.O.O.O=S(=O)([O-])[O-].[Cu+2] [CuSO4 *5 H2 O]
- residual activity [1, 8]: 103%

Molecule: CSCC[C@@H](NC(C)=O)C(=O)O [Ac-D-Met-OH]
- enantiomeric purity examined with HPLC (share of the enantiomer in the acid product) [2]: 0.2-0.3%

Molecule: C[N+](C)(C)CC(O)CC(N)=O (centres unmarked) [Carnitine amide, carnitine amide]
- Activity (peptide amidase in raw extract) (Xanthomonas maltophilia): 30 mU/ml
- Spec. activity (peptide amidase in raw extract) (Xanthomonas maltophilia): 7 mU/mg BSAeq

Molecule: N[C@@H]1CONC1=O [D-cycloserine]
- remaining activity at 10000 µM [1, 8]: 100%

Molecule: O=S(=O)(F)Cc1ccccc1 [Phenylmethane sulfonyl fluoride]
- inhibition of the microbial peptide amidase (serine groups) [1]: Inhibition
- residual activity [1, 8]: 58%
- inhibition by inhibitors from serine proteases [5]: Slight inhibition

Molecule: O[C@H](CS)[C@H](O)CS (relative stereo) [1,4-dithio-D,L-threitol]
- remaining activity at 10000 µM [1, 8]: 96%

Molecule: CC(=O)N[C@@H](CC(C)(C)C)C(=O)O [Ac-L-Npg-OH, N-acetyl-L-neopentylglycine]
- enantiomeric purity examined with HPLC (share of the enantiomer in the acid product) [2]: 99.8%

Molecule: CC(C)C[C@H](N)C(N)=O [Leu-NH2, leucine amide]
- Activity (peptide amidase in raw extract) (Xanthomonas maltophilia): 15 mU/ml
- Spec. activity (peptide amidase in raw extract) (Xanthomonas maltophilia): 3 mU/mg BSAeq

Molecule: NCCc1ccc(S(=O)(=O)F)cc1 [Pefabloc]
- inhibition of the microbial peptide amidase (serine groups) [1]: Inhibition
- residual activity ([1]; inhibitor 0.3 mM, preincubation 1 h 30° C., Z-Gly-Tyr-NH2 10 mM): 62%
- residual activity ([1]; inhibitor 0.1 Mm, preincubation 1 h 30° C., Z-Gly-Tyr-NH2 10 mM): 82%
- residual activity [1, 8]: 0%

Molecule: NC(=O)[C@H](Cc1ccc(O)cc1)NC(=O)CNC(=O)OCc1ccccc1 [Z-Gly-Tyr-NH2] (Cbz-Gly-Tyr-NH2)
- vmax [6]: 0.53 U/mg BSAeq

B1: peptide amidase from Xanthomonas maltophilia (Stenotrophomonas maltophilia) (protein)
chain: T1 sequence (Q8RJN5 34-540)
notes: wild type, not recombinant
- Km [7]: 820 µM
